Results: PubChem BioAssay (NCI)
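A five-concentration, 48-hour dose response in 96-well plates underlies each endpoint, interpolated linearly between surrounding concentrations. The concentration for 50% growth inhibition is given as GI50. TGI: total growth inhibition.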

Assays:
Assay in all cases: NCI-60 cell line screen, 48 h
SF-539 CNS = tested on: SF-539 CNS
HOP-92 NSCLC = tested on: HOP-92 NSCLC
EKVX NSCLC = tested on: EKVX NSCLC
SN12C renal = tested on: SN12C renal
HCT-15 colon = tested on: HCT-15 colon
OVCAR-5 ovarian = tested on: OVCAR-5 ovarian
A549 NSCLC = tested on: A549 NSCLC
NCI-H226 lung = tested on: NCI-H226 lung
SR leukemia = tested on: SR leukemia
CCRF-CEM leukemia = tested on: CCRF-CEM leukemia
UO-31 renal = tested on: UO-31 renal
M14 melanoma = tested on: M14 melanoma
COLO 205 colon = tested on: COLO 205 colon
HT29 colon = tested on: HT29 colon
DU-145 prostate = tested on: DU-145 prostate
MDA-MB-231 breast = tested on: MDA-MB-231 breast
A498 renal = tested on: A498 renal
IGROV1 ovarian = tested on: IGROV1 ovarian
SF-268 CNS = tested on: SF-268 CNS
LOX IMVI melanoma = tested on: LOX IMVI melanoma
MOLT-4 leukemia = tested on: MOLT-4 leukemia
HL-60(TB) leukemia = tested on: HL-60(TB) leukemia
786-0 renal = tested on: 786-0 renal
UACC-257 melanoma = tested on: UACC-257 melanoma
PC-3 prostate = tested on: PC-3 prostate
KM12 colon = tested on: KM12 colon
SK-MEL-28 melanoma = tested on: SK-MEL-28 melanoma
K-562 leukemia = tested on: K-562 leukemia
NCI-H23 lung = tested on: NCI-H23 lung
CAKI-1 renal = tested on: CAKI-1 renal
SK-MEL-5 melanoma = tested on: SK-MEL-5 melanoma
SNB-75 CNS = tested on: SNB-75 CNS
HCT-116 colon = tested on: HCT-116 colon
SK-OV-3 ovarian = tested on: SK-OV-3 ovarian
NCI-H460 lung = tested on: NCI-H460 lung
OVCAR-4 ovarian = tested on: OVCAR-4 ovarian
SW-620 colon = tested on: SW-620 colon
SNB-19 CNS = tested on: SNB-19 CNS
HOP-62 NSCLC = tested on: HOP-62 NSCLC
MALME-3M melanoma = tested on: MALME-3M melanoma
OVCAR-3 ovarian = tested on: OVCAR-3 ovarian
NCI/ADR-RES ovarian = tested on: NCI/ADR-RES ovarian
MCF7 breast = tested on: MCF7 breast
BT-549 breast = tested on: BT-549 breast
SF-295 CNS = tested on: SF-295 CNS
TK-10 renal = tested on: TK-10 renal

CNCCCNc1c2cc(OC)ccc2nc2cccc([N+](=O)[O-])c12
GI50 (SF-539 CNS): 132 nM
TGI (SF-539 CNS): 366 nM
GI50 (HOP-92 NSCLC): 23.2 nM
TGI (HOP-92 NSCLC): 137 nM
GI50 (EKVX NSCLC): 274 nM
TGI (EKVX NSCLC): 1150 nM
GI50 (SN12C renal): 86.4 nM
TGI (SN12C renal): 16500 nM
GI50 (HCT-15 colon): 28.5 nM
GI50 (OVCAR-5 ovarian): 24.6 nM
TGI (OVCAR-5 ovarian): 99.3 nM
GI50 (A549 NSCLC): 32 nM
TGI (A549 NSCLC): 247 nM
GI50 (NCI-H226 lung): 128 nM
TGI (NCI-H226 lung): 385 nM
GI50 (SR leukemia): 25.3 nM
GI50 (CCRF-CEM leukemia): 17.3 nM
TGI (CCRF-CEM leukemia): 173 nM
GI50 (UO-31 renal): 85.5 nM
TGI (UO-31 renal): 275 nM
GI50 (M14 melanoma): 21.1 nM
TGI (M14 melanoma): 47.6 nM
GI50 (COLO 205 colon): 41.8 nM
TGI (COLO 205 colon): 237 nM
GI50 (HT29 colon): 22.3 nM
TGI (HT29 colon): 80.6 nM
GI50 (DU-145 prostate): 45.4 nM
TGI (DU-145 prostate): 14800 nM
GI50 (MDA-MB-231 breast): 69.4 nM
TGI (MDA-MB-231 breast): 672 nM
GI50 (A498 renal): 63.7 nM
TGI (A498 renal): 271 nM
GI50 (IGROV1 ovarian): 33.8 nM
TGI (IGROV1 ovarian): 195 nM
GI50 (SF-268 CNS): 56.5 nM
TGI (SF-268 CNS): 376 nM
GI50 (LOX IMVI melanoma): 64.1 nM
TGI (LOX IMVI melanoma): 354 nM
TGI (MOLT-4 leukemia): 48.2 nM
GI50 (HL-60(TB) leukemia): 16.2 nM
GI50 (786-0 renal): 34.3 nM
TGI (786-0 renal): 306 nM
GI50 (UACC-257 melanoma): 173 nM
TGI (UACC-257 melanoma): 397 nM
TGI (PC-3 prostate): 277 nM
GI50 (KM12 colon): 43.1 nM
TGI (KM12 colon): 251 nM
GI50 (SK-MEL-28 melanoma): 150 nM
TGI (SK-MEL-28 melanoma): 650 nM
GI50 (K-562 leukemia): 15.3 nM
TGI (K-562 leukemia): 44.9 nM
GI50 (NCI-H23 lung): 26.9 nM
TGI (NCI-H23 lung): 220 nM
GI50 (CAKI-1 renal): 30.6 nM
TGI (CAKI-1 renal): 128 nM
GI50 (SK-MEL-5 melanoma): 19 nM
TGI (SK-MEL-5 melanoma): 37.5 nM
GI50 (SNB-75 CNS): 61.1 nM
TGI (SNB-75 CNS): 224 nM
GI50 (HCT-116 colon): 25.5 nM
TGI (HCT-116 colon): 150 nM
GI50 (SK-OV-3 ovarian): 65 nM
TGI (SK-OV-3 ovarian): 670 nM
GI50 (NCI-H460 lung): 25 nM
TGI (NCI-H460 lung): 103 nM
GI50 (OVCAR-4 ovarian): 16.6 nM
TGI (OVCAR-4 ovarian): 52.8 nM
GI50 (SW-620 colon): 36.9 nM
TGI (SW-620 colon): 517 nM
GI50 (SNB-19 CNS): 123 nM
TGI (SNB-19 CNS): 519 nM
GI50 (HOP-62 NSCLC): 28.4 nM
TGI (HOP-62 NSCLC): 81 nM
GI50 (MALME-3M melanoma): 110 nM
TGI (MALME-3M melanoma): 315 nM
GI50 (OVCAR-3 ovarian): 234 nM
TGI (OVCAR-3 ovarian): 818 nM
GI50 (NCI/ADR-RES ovarian): 444 nM
TGI (NCI/ADR-RES ovarian): 3470 nM
GI50 (MCF7 breast): 23.4 nM
TGI (MCF7 breast): 101 nM
GI50 (BT-549 breast): 186 nM
TGI (BT-549 breast): 406 nM
GI50 (SF-295 CNS): 40.7 nM
TGI (SF-295 CNS): 258 nM
TGI (TK-10 renal): 378 nM
